Values quoted from earlier work in patent US7501533B2, “Process for preparing lysophosphatidylcholine” (Chem SpA, priority 2004, dated 2009).

Tested on: rats
Details: from Sax and others, Dangerous Properties of Industrial Materials, edition VII

Row | Structure (SMILES) | LD50 (acute oral toxicity)
1 | CCC[CH2][Sn](=[O])[CH2]CCC [dibutyltin oxide] | LD50 = 44.9 mg/kg
2 | CCCCCCC[CH2][Sn](=[O])[CH2]CCCCCCC [dioctyltin oxide] | LD50 = 2500 mg/kg
